Assay results as given in PMC11945486, “TAS1R2/TAS1R3 Single-Nucleotide Polymorphisms Affect Sweet Taste Receptor Activation by Sweeteners: The SWEET Project” (Nutrients, 2025).
Like-named read-outs stand apart in the source and are kept apart here. No end group written: not given here.

T1: human TAS1R2-WT/TAS1R3-R247H (Homo sapiens, UniProt Q7RTX0+Q8TE23, R247H)
T1 construct: expressed in transfected cells; host or cells: HEK293T stably expressing Gα16gust44
T1 sequence (Q8TE23 20-839): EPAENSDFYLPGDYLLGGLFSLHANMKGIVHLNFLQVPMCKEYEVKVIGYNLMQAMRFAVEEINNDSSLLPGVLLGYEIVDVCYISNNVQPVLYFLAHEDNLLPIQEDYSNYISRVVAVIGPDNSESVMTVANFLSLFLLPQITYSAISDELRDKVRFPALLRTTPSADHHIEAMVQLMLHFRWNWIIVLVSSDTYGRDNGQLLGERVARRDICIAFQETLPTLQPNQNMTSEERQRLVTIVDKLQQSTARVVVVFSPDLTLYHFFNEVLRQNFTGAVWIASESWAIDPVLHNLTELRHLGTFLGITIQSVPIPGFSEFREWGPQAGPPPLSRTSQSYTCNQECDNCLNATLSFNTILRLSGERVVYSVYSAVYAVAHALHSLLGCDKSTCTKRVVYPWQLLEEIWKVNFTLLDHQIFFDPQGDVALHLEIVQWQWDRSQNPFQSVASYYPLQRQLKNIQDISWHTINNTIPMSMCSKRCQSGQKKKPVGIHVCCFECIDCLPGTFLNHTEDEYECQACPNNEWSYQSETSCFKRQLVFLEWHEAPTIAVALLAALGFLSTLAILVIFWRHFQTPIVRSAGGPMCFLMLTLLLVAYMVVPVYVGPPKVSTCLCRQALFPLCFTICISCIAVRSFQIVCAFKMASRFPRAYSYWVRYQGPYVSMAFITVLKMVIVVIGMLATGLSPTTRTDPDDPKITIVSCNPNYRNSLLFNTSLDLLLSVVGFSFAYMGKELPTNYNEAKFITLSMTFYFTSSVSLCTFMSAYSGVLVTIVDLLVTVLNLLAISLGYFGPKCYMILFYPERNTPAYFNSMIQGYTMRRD
T1 sequence (Q7RTX0 21-852 R247H): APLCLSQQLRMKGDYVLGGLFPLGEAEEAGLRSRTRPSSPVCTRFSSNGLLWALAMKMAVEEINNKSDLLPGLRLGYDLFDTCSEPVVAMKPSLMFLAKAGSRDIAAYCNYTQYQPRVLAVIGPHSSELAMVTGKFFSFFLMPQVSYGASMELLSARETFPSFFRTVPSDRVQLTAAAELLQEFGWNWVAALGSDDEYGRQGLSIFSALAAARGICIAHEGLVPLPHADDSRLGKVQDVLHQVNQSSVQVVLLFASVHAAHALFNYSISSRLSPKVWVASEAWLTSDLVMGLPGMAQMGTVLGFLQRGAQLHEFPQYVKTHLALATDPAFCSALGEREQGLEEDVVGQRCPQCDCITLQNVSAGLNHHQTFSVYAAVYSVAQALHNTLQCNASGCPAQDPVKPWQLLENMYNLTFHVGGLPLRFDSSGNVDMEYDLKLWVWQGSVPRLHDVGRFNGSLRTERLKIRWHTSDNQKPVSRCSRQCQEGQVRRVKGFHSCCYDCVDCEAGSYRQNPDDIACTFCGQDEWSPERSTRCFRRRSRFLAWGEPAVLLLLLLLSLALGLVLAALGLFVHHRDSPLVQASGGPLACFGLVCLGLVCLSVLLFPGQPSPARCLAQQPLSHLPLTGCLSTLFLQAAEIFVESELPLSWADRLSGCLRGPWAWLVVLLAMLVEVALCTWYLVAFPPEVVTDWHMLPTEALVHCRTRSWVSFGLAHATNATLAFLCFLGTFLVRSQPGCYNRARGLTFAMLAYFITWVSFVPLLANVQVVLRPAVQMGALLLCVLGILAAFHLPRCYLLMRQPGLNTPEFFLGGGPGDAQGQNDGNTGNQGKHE


Target: T1, human TAS1R2-WT/TAS1R3-R247H
Assay: Calcium mobilisation assay, TAS1R2-WT with TAS1R3 variant R247H
Type: cell-based
Conditions: for Max ΔF/F0: maximal signal amplitude
Description: The coding sequences for TAS1R2 and TAS1R3 were commercially synthesised, and the human codon was optimised for expression in human cells. The coding sequences of human TAS1R2 and TAS1R3 were subcloned and inserted into the mammalian expression vectors pcDNA6/myc-HisA and pcDNA4/myc-HisA (Invitrogen; Thermo Fisher Scientific; Illkirch, France) between the EcoRI and NotI restriction sites, generating the plasmids pcDNA6-TAS1R2 and pcDNA4-TAS1R3, respectively. To increase protein expression in mammalian cells, an upstream start codon was used, which was a sequence called MAX, corresponding to the QBI SP163 element also described in pcDNA4-HisMax (Invitrogen; Thermo Fisher Scientific; Illkirch, France). To measure the expression level of the receptor by immunohistochemistry, we used the FLAG sequence ([…]) in the C-terminal position, which encodes the FLAG tag epitope. SNP variants of TAS1R2 and TAS1R3 were constructed based on […], respectively, using site-directed mutagenesis (Genewiz; Leipzig, Germany).
The HEK293T cells were kindly provided by Jay P. Slack (Givaudan Flavors Corporation; Cincinnati, OH, USA). HEK293T cells stably transfected with Gα16gust44 [43, 67] were seeded in poly-D-lysine-coated clear-bottom black 96-well plates (0.35 × 10^5 cells/well) in high-glucose DMEM supplemented with 2 mM GlutaMAX, 10% dialysed foetal bovine serum with penicillin/streptomycin and G418 (400 μg/mL) at 37 °C and 6.3% CO2 in a humidified atmosphere as previously reported. […] As a negative control, HEK293T cells were mock-transfected with the empty expression vector. After a further 24 h of incubation, the HEK293T cells were washed with C1 buffer (130 mM NaCl, 5 mM KCl, 10 mM HEPES pH 7.4 and 2 mM CaCl2). The 96-well plates containing the cells were then stimulated with sweet-tasting compounds. […] Different concentration ranges were tested depending on the sweet compound injected. The Ca^2+ changes were expressed as fractional changes in fluorescent light intensity: ΔF/F = (F − F0)/F0, where F was the fluorescent light intensity at each point, and F0 was the value of emitted fluorescent light prior to stimulus application. To calculate dose–response relationships, the changes in fluorescence upon stimulus application were averaged, mock-subtracted and baseline-corrected. The dose–response data obtained were adjusted using a 4-parameter logistic equation. The half-maximal effective concentrations (EC50 values) and maximal signal amplitudes were calculated using SigmaPlot software (version 15.0) (Systat Software; San Jose, CA, USA).
For in vitro calcium mobilisation assay performed on hTAS1R2-SNPs, hTAS1R3-SNPs and mTAS1R3-I60T, 6 to 7 concentrations were tested for each sweet compound, plus buffer alone. All concentration–receptor combinations were measured in duplicate, and each experiment was repeated at least 4 times (8 wells/concentration). Results were expressed for each concentration as ΔF/F mean ± SEM and represented as dose–response curves.

| Molecule | R1 = Variant EC50/WT EC50 | Max ΔF/F0 | EC50 (read-out: EC50) [µM] | EC50 (brazzein) [mg/L] |
| --- | --- | --- | --- | --- |
| CC1=CC(=O)NS(=O)(=O)O1 [Acesulfame K, acesulfame K] | 1.0 | 0.33 ± 0.01 | 639 ± 17 | – |
| O=S(=O)(O)NC1CCCCC1 [Cyclamate, cyclamate] | – | – | 1520 ± 46 | – |
| C[C@H](CC[C@@H](O[C@@H]1O[C@H](CO[C@@H]2O[C@H](CO)[C@@H](O)[C@H](O)[C@H]2O)[C@@H](O)[C@H](O)[C@H]1O[C@@H]1O[C@H](CO)[C@@H](O)[C@H](O)[C@H]1O)C(C)(C)O)[C@H]1CC[C@@]2(C)[C@@H]3CC=C4[C@@H](CC[C@H](O[C@@H]5O[C@H](CO[C@@H]6O[C@H](CO)[C@@H](O)[C@H](O)[C@H]6O)[C@@H](O)[C@H](O)[C@H]5O)C4(C)C)[C@]3(C)[C@H](O)C[C@]12C [Mogroside V, mogroside V] | 0.9 | 1.12 ± 0.02 | 28.7 ± 1.6 | – |
| COc1ccc(CCC(=O)c2c(O)cc(O[C@@H]3O[C@H](CO)[C@@H](O)[C@H](O)[C@H]3O[C@@H]3O[C@@H](C)[C@H](O)[C@@H](O)[C@H]3O)cc2O)cc1O [NHDC, neohesperidin dihydrochalcone] | 1.3 | 1.14 ± 0.05 | 65 ± 8.9 | – |
| COC(=O)[C@H](Cc1ccccc1)NC(=O)[C@H](CC(=O)O)NCCC(C)(C)C [Neotame] | 0.9 | 0.71 ± 0.02 | 1.12 ± 0.07 | – |
| C=C(C)[C@@H]1CC=C(/C=N/O)CC1 [Perillartine, perillartine] | 0.6 | 1.26 ± 0.15 | 8.5 ± 3.1 | – |
| C=C1C[C@@]23CC[C@H]4[C@@](C)(CCC[C@@]4(C)C(=O)O[C@@H]4O[C@H](CO)[C@@H](O)[C@H](O[C@@H]5O[C@H](CO)[C@@H](O)[C@H](O)[C@H]5O)[C@H]4O[C@@H]4O[C@H](CO)[C@@H](O)[C@H](O)[C@H]4O)[C@@H]2CC[C@]1(O[C@@H]1O[C@H](CO)[C@@H](O)[C@H](O[C@@H]2O[C@H](CO)[C@@H](O)[C@H](O)[C@H]2O)[C@H]1O[C@@H]1O[C@H](CO)[C@@H](O)[C@H](O)[C@H]1O)C3 [Rebaudioside M, rebaudioside M] | 0.7 | 1.15 ± 0.04 | 29.7 ± 2.6 | – |
| OC[C@H]1O[C@H](O[C@]2(CCl)O[C@H](CCl)[C@@H](O)[C@@H]2O)[C@H](O)[C@@H](O)[C@H]1Cl [Sucralose] | 1.1 | 0.69 ± 0.01 | 122 ± 2 | – |
| brazzein (QDKCKKVYENYPVSKCQLANQCNYDCKLDKHARSGECFYDEKRNLQCICDYCEY; ends and bridges not checked; cysteine pairing not given here; UniProt P56552 1-54, looked up) [sweet-tasting protein obtained by recombinant production using the yeast Pichia pastoris] | 0.6 | 0.95 ± 0.03 | – | 70.8 ± 8.1 |
| thaumatin | 0.8 | 0.73 ± 0.08 | – | – |
| thaumatin (protein, Eight disulfides, sweet-tasting plant protein, E957) ATFEIVNRCSYTVWAAASKGDAALDAGGRQLNSGESWTINVEPGTKGGKIWARTDCYFDDSGSGICKTGDCGGLLRCKRFGRPPTTLAEFSLNQYGKDYIDISNIKGFNVPMDFSPTTRGCRGVRCAADIVGQCPAKLKAPGGGCNDACTVFQTSEYCCTTGKCGPTEYSRFFKRLCPDAFSYVLDKPTTVTCPGSSNYRVTFCPTA | – | – | 8.2 ± 2.3 | – |
